In US6919306B2, “Method of skin care” (Yaizu Suisankagaku Industry Co. Ltd., priority 1999, dated 2005):

Key:
[1] = NAG kinetics study with 14C labelled NAG; format: in vivo; conditions: rats, single forced oral 250 mg/kg of body weight
Experimental: A mixture of ^14C labelled NAG (1 st-position carbon atom-labelled product: manufactured by Amasham Life Science Co.) and unlabelled NAG (the one prepared in PREPARATION EXAMPLE 1) was given to rats by single forced oral administration (250 mg/kg of body weight) for in vivo kinetics study. […] About 60% of the administered NAG was utilized as an energy source and excreted as CO2 to expiration. Further, about 20% was excreted to urine and stool.

[2] = system: skin surface acidity; experiment: Skin acidity (pH) by PH 900; format: in vivo, human; conditions: NAG 1,000 mg/day oral
Experimental: (§1) To 22 females usually having a tendency of xeroderma and rough skin (average age: 25.5±10.7), a double blind long-term ingestion study was carried out in the following manners provided that a […] were given to a control group.
(§2) NAG-containing tablets-administered group (NAG group, n=11): Tablets prepared similarly as in Example 1 as described below (NAG amount: 200 mg/tablet), were ingested at a rate of 5 tablets/day (NAG 1,000 mg/day, as a daily dose).
(§3) The ingestion period was 8 weeks in each group. The inspection was in principle carried out just before the start of ingestion, 4 weeks after the start of ingestion, and just before the completion of ingestion (8 weeks after the start of ingestion).
The acidity was measured by using PH 900 (manufactured by Courage+Khazaka Electronic Gmbh). In use of this apparatus, an electrode is contacted to a skin surface through an ion-permeable membrane neighboring to a glass membrane and the acidity can be measured without electrochemical invasion. In this connection, the optimum pH of female's skin is about 5.5.
(§4) Measurement sites were 1 cm below the left eye, medial part of left upper arm (3 cm above the elbow), and poll (3 cm below spinous process of neck). With respect to the oil and fat content, since most subjects were scored at 0 at the left upper arm and the poll, only the site below the left eye was measured from the 2nd inspection.
(§5) In order to keep the environments for the measurements as equal as possible, a room having its internal conditions adjusted to be constant was prepared before the measurements (room temperature: 18 to 20° C., humidity: 45 to 60%), and the subjects were asked to keep in rest in this room for at least 30 minutes. Further, with respect to the makeup at the measurement site, it was in principle prohibited to put on makeup from 60 minutes before the inspection.

[3] = system: skin conditions of adult female volunteers; experiment: Questionnaire on skin conditions after tablet ingestion; format: in vivo, human; conditions: NAG 1.2 g per day oral tablets, 60 days
Experimental: 20 adult female volunteers of age ranging from 25 to 45 years old were classified into two groups i.e. a test group and a control group. They were asked to take tablets prepared similarly as in Example 1 as described below at a rate of […], twice a day (NAG ingestion amount per day: 1.2 g) together with water, provided that the tablets for the control group were prepared by using lactose as a placebo instead of NAG. The test period was 60 days, and after the completion of test, they were questioned about skin conditions and the like by questionnaires. No particular restriction was made with respect to diet, makeup and the like during the test period.

[4] = system: oil and fat content of skin; experiment: Skin oil and fat content by Sebumeter SM810; format: in vivo, human; conditions: for Oil and fat content, Below left eye: NAG 1,000 mg/day oral
Experimental: as §1, §2, §3
The oil and fat content was measured by using Sebumeter SM810 (manufactured by Courage+Khazaka Electronic Gmbh). In use of this apparatus, a special tape which absorbs only the oil and fat content is attached to the measurement site for 30 seconds and the oil and fat content is measured by the change of light transmittance of the tape. This apparatus is known not to be affected by humidity, etc.
as §4, §5

[5] = Solubility of natural-type NAG in water; format: physicochemical; conditions: water of 25° C.
Excerpt: In the present invention, as a carrier for the skin care agent, foods such as confectioneries, powdered soups, dairy products and beverages, may, for example, be mentioned. As such foods, specifically, gum, candies, tabletted confectioneries, chocolate, jelly, cookies, snacks, corn potage soup, consomme soup, milk, pudding, yogurt, ice cream, lactic acid beverages, alcohol beverages, vitamin beverages, mineral beverages, coffee beverages, near water, nutrition drinks, and the like, may be mentioned.

[6] = system: Wister rats (SPF); experiment: Acute toxic test of NAG; format: in vivo; conditions: rat
Experimental: To each of five males and five females of Wister rats (SPF), NAG was given by a single oral administration in an amount of 5,000 mg per kg of body weight. After the administration, these rats were bred for 14 days and observed, and no death was recognized. It was also recognized that the 50% lethal dose (LD50) to the rats was at least 5,000 mg per kg of body weight.

[7] = system: moisture content of epidermis; experiment: Skin moisture content by Corneometer CM825; format: in vivo, human; conditions: for Moisture content, Left upper arm / Moisture content, Poll / Moisture content, Below left eye: NAG 1,000 mg/day oral
Experimental: as §1, §2, §3
The moisture content was measured by using Corneometer CM825 (manufactured by Courage+Khazaka Electronic Gmbh). This apparatus measures the moisture content of epidermis by measuring the electrostatic capacity via corneal layer, and is known to be less in error as compared with a conventional impedance method or infrared spectrophotometric method.
as §4, §5

[8] = system: hyaluronic acid in skin; experiment: Influence of orally administered NAG on hyaluronic acid content in skin; format: in vivo, hairless rats; conditions: for Hyaluronic acid content, Epidermis / Hyaluronic acid content, Corium: hairless rats; for Hyaluronic acid content, Epidermis: 4 weeks (0 mg/kg/day: 31.25); for Hyaluronic acid content, Corium: 4 weeks (0 mg/kg/day: 462.7)
Experimental: Using hairless rats, influence of orally administered NAG on the content of hyaluronic acid in skin was tested. The NAG prepared in PREPARATION EXAMPLE 1 was mixed to a basic feed (Solid feed MF, manufactured by Oriental Kobo Kogyo Kabushiki Kaisha), and rats were permitted to freely ingest the mixture so that the substantial administered amount of NAG would be 0, 20 or 200 mg/kg of body weight/day. Administration was continued for 4 weeks from 9 week instar to 13 week instar, and the hyaluronic acid amounts in skin layer were measured separately for epidermis and corium. In this connection, the measurement of the hyaluronic acid was carried out in accordance with a hyaluronic acid measurement kit (manufactured by Chugai Shindanyaku Co.).

[9] = NAG group, 1,000 mg/day oral, 8 weeks

Compound: CC(=O)N[C@H]1C(O)O[C@H](CO)[C@@H](O)[C@@H]1O (stereo partly drawn) [NAG, N-acetylglucosamine]
- absorption after oral administration [1]: rapidly absorbed
- share excreted to urine and stool [1]: about 20%
- time at which average concentration of radioactivity in blood reached the maximum value [1]: 4 h
- residual transferred to tissues (e.g. cartilaginous and fatty tissues) ([1]; autoradiography and tissue radioactivity): about 20%
- Acidity (pH), Below left eye ([2]; after 4 weeks): 5.7 ± 0.5 pH
- Acidity (pH), Left upper arm ([2]; after 4 weeks): 5.6 ± 0.3 pH
- Acidity (pH), Poll ([2]; after 4 weeks): 5.4 ± 0.3 pH
- Acidity (pH), Below left eye ([2]; after 8 weeks): 5.8 ± 0.4 pH
- Acidity (pH), Left upper arm ([2]; after 8 weeks): 5.7 ± 0.4 pH
- Acidity (pH), Poll ([2]; after 8 weeks): 5.3 ± 0.4 pH
- Acidity (pH), Left upper arm ([2]; before ingestion): 5.5 ± 0.3 pH
- Acidity (pH), Poll ([2]; before ingestion): 5.7 ± 1.1 pH
- Acidity (pH), Below left eye ([2]; before ingestion, optimum pH about 5.5): 6.0 ± 1.0 pH
- skin-beautification effect ([3]; versus placebo region): recognized
- Fine wrinkles decreased (number of persons) ([3]; test region, placebo 1): 5
- Skin conditions worsened as a whole (number of persons) ([3]; test region, placebo 1): 0
- Feel moistness in skin (number of persons) ([3]; test region, placebo 2): 7
- Feel tension in skin (number of persons) ([3]; test region, placebo 2): 6
- Skin conditions improved as a whole (number of persons) ([3]; test region, placebo 2): 8
- No change (including unidentified) (number of persons) ([3]; test region, placebo 5): 2
- Oil and fat content, Below left eye ([4]; after 4 weeks): 53.0 ± 29.2
- Oil and fat content, Below left eye ([4]; after 8 weeks, p < 0.05): 40.8 ± 18.7
- Oil and fat content, Below left eye ([4]; before ingestion): 63.8 ± 42.3
- oil and fat content, change [4, 9]: significant decrease
- solubility in water [5]: 32 % by weight
- 50% lethal dose (LD50) ([6]; both, Wister, in vivo, po, 14 days): at least 5,000 mg per kg of body weight
- safety on oral administration ([6]; orally administered 5 g per kg of body weight): safety is confirmed
- Moisture content, Left upper arm ([7]; after 4 weeks): 38.7 ± 5.8
- Moisture content, Poll ([7]; after 4 weeks): 51.9 ± 5.4
- Moisture content, Below left eye ([7]; after 4 weeks, p < 0.05): 58.8 ± 14.2
- Moisture content, Left upper arm ([7]; after 8 weeks): 36.2 ± 6.8
- Moisture content, Poll ([7]; after 8 weeks): 52.1 ± 10.9
- Moisture content, Below left eye ([7]; after 8 weeks, p < 0.01): 56.2 ± 8.4
- Moisture content, Below left eye ([7]; before ingestion): 48.0 ± 8.8
- Moisture content, Left upper arm ([7]; before ingestion): 37.8 ± 7.8
- Moisture content, Poll ([7]; before ingestion): 51.3 ± 5.6
- moisture content at the site below the left eye, change [7, 9]: significant increase
- hyaluronic acid contents in epidermis and corium versus administered amount ([8]; hairless rats, 0, 20 or 200 mg/kg/day, 4 weeks): tend to increase together in proportion to the administered amounts
- Hyaluronic acid content, Epidermis ([8]; NAG 20 mg/kg/day in feed): 33.77 μg/g dried tissue
- Hyaluronic acid content, Corium ([8]; NAG 20 mg/kg/day in feed): 506.6 μg/g dried tissue
- Hyaluronic acid content, Epidermis ([8]; NAG 200 mg/kg/day in feed): 35.09 μg/g dried tissue
- Hyaluronic acid content, Corium ([8]; NAG 200 mg/kg/day in feed): 549.8 μg/g dried tissue
